# Reference: patent US7528132B2, “Kinase inhibitors” (Schering Corporation, priority 2005, dated 2009)
# Where two headings read alike, the source gives them in different places.
# Molecular target: T1, Akt1 (Homo sapiens, UniProt P31749)
# T1 construct: made in house; host or cells: Sf9 insect cells (baculovirus, pBlueBacHis2B)
# Assay: Akt1 kinase assay (33P phosphorylation of biotinylated peptide, Flash plates)
# Assay type: biochemical
# Settings: for inhibition at 1.1 µg/mL: assayed at a concentration of 1.1 mcg/mL
# Text: The assay described below measures the phosphorylation of a biotinylated peptide by active recombinant Akt1 and other kinase isoforms. The biotinylated peptide contains a consensus sequence derived from Akt substrate Gsk3 (Glycogen synthase kinase 3). The ^33P-labeled peptide substrate was captured by streptavidin-coated Flash plates.
# Active recombinant Akt1 was expressed in Sf9 insect cells and purified as described by Kumar et al., Biochim. Biophys. Acta. Jun. 15, 2001, 1526(3), 257-268. Biotinylated peptide of the sequence Bio-ahx-RPRAASF was purchased from Syn Pep (Dublin, Calif., USA).
# Cloning and Expression of Human Akt1 Sf9 Cells
# Human Akt1 cDNA was amplified from a marathon-ready human lung cDNA library (Clonetech) using nested oligo primers as described below. The first round of amplification was carried out using the following primers; Akt1F1 ([…]) and Akt1R1 (TCCATC […]) and for the second round amplification, the primers of the following sequence were used; Akt1F2 (GGATCCTCGG […]) and AKT1R2 (GGTACCATCGTC […]). The PCR product was subcloned into pCRScript plasmid as a BamHI/KpnI fragment and the sequence of the cDNA was confirmed by DNA sequencing. This plasmid was used as a template for reamplification of Akt1 using appropriate primers for subcloning into pBlueBaHis2B into BamH1/EcoRI sites to generate an in frame fusion to (His)6 tag and an anti-Xpress antibody epitope tag at the N-terminus. This construct was sequenced to verify the junction sequences and used for generating a recombinant baculovirus. Growth of the recombinant virus, amplification and determination of viral titer were carried out according to the instructions from the manufacturer (InVitrogen, CA).
# Purification of Akt1 from Sf9 Cells
# Viral stocks were used to infect large scale Sf9 cells at a multiplicity of infection (MOI) of 2.5. Cells were maintained at 27° C. for 60 h and okadaic acid was added to the cultures to a concentration of 50 nM. Cells were harvested 4 h hours later by centrifugation at 1200 rpm for 30 min followed by freezing at −80° C. until further use. All purification steps were carried out at 4° C. Whole cell pellets were suspended in buffer A (20 mM sodium phosphate buffer pH 7.8, 500 mM NaCl, 1 mM sodium vanadate, 5 mM sodium fluoride, 40 mM β-glycerophosphate, 10 mM imidazole and protease inhibitor cocktail) and lysed using a microfluidizer. The cell extract was centrifuged at 16,000×g for 10 min to remove the debris and directly loaded onto Ni-NTA Superflow resin using a FPLC pump operated at 1 ml/min. The column was washed once with buffer A, once with wash buffer B (20 mM sodium phosphate pH 6.0, 1 mM sodium vanadate, 5 mM sodium fluoride and protease cocktail) and once with wash buffer B containing 0.05% Tween-20 followed by washing with buffer A until OD260 returned to basal level. Proteins were eluted with buffer A containing 200 mM imidazole. Fractions were analyzed by electrophoresis on 10% denaturing polyacrylamide gels and fractions containing 85% pure protein band at 60 KDa were pooled and dialyzed against buffer C (20 mM Tris-HCl pH 7.5, 0.5 mM EDTA,-2 mM DTT, 145 mM NaCl, 0.1 mM sodium vanadate, 5 mM sodium fluoride, 10 mM, β-glycerophosphate and 20% glycerol). Purified protein was stored as aliquots at −80° C. Protein concentrations were determined using BCA protein assay reagent A (Catalog #23228). To examine the identity of the proteins, 2 μg of purified protein was electrophoresed on SDS-polyacrylamide gels and stained with coomassie blue dye or transferred to nitrocellulose membrane and probed with anti-Akt and anti-phospho-specific Akt antibodies using enhanced chemiluminescence (ECL) reagent according to the protocol described by the manufacturer (Amersham).
# The kinase assay was performed in 96 well plates at room temperature. Assay solutions and plates were preincubated at room temperature for 5 min. […]
# [1] = read-out: IC50 rating (AKT1 inhibition)
# [2] = read-out: IC50 (AKT1 inhibition)
# T1 sequence (P31749 whole entry): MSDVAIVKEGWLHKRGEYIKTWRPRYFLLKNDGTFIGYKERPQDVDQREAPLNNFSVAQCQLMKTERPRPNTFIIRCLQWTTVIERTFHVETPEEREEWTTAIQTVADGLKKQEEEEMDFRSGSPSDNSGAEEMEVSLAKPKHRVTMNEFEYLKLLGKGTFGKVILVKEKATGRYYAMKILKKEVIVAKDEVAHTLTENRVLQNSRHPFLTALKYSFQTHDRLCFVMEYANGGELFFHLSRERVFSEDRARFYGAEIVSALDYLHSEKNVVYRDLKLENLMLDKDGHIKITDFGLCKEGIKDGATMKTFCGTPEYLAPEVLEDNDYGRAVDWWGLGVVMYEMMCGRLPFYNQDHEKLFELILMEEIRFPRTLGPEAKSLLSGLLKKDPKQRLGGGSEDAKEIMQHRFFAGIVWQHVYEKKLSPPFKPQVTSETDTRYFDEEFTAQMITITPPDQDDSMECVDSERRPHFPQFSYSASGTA
SMILES,IC50 [1] [nM],IC50 [2] [nM],inhibition at 1.1 µg/mL [%]
"Cc1n[nH]c2ccc(-c3nncc(N4CCN[C@@H](C(C)(C)C)C4)n3)cc12 [Compound 73, 3-(3-methylindazol-5-yl)-5-[(S)-3-tert-butylpiperazin-1-yl]-[1,2,4]triazine]",100 to 1000,–,–
"Cc1n[nH]c2ccc(-c3nnc(CCc4ccccc4)c(N4CCN[C@@H](C(C)C)C4)n3)cc12 [Compound 93, 5-[(S)-3-isopropylpiperazin-1-yl]-3-(3-methylindazol-5-yl)-6-phenethyl-[1,2,4]triazine]",< 100,1.36,–
"Cc1n[nH]c2ccc(-c3nnc(Cl)c(N4CCN[C@@H](C(C)C)C4)n3)cc12 [Compound 20, 6-chloro-5-[(S)-3-isopropylpiperazin-1-yl]-3-(3-methylindazol-5-yl)-[1,2,4]triazine]",< 100,–,> 90
"Cc1ccccc1CC1CN(c2cnnc(-c3ccc4[nH]ncc4c3)n2)CCN1 (centres unmarked) [Compound 74, 3-indazol-5-yl-5-[3-(2-methylbenzyl)piperazin-1-yl]-[1,2,4]triazine]",100 to 1000,–,–
"Cc1n[nH]c2ccc(-c3nncc(N4CCN[C@@H](CC(C)C)C4)n3)cc12 [Compound 23, 5-[(S)-3-isobutylpiperazin-1-yl]-3-(3-methylindazol-5-yl)-[1,2,4]triazine]",< 100,5.4,> 90
"Cc1n[nH]c2ccc(-c3nncc(N4CCC(N)C4)n3)cc12 (centres unmarked) [Compound 37, 5-(3-aminopyrrolidin-1-yl)-3-(3-methylindazol-5-yl)-[1,2,4]triazine]",100 to 1000,–,–
"Cc1n[nH]c2ccc(-c3nncc(N4CCN[C@@H](Cc5ccccc5)C4)n3)cc12 [Compound 12, 3-(3-methylindazol-5-yl)-5-[(S)-3-benzylpiperazin-1-yl]-[1,2,4]triazine]",< 100,2.6,> 90
"Cc1n[nH]c2ccc(-c3nnc(N(Cc4ccccc4)Cc4ccccc4)c(N4CCNCC4)n3)cc12 [Compound 4, 6-dibenzylamino-3-(3-methylindazol-5-yl)-5-(piperazin-1-yl)-[1,2,4]triazine]",> 1000,–,–
Cc1n[nH]c2ccc(-c3nncc(N4CCCC(CO)(Cc5ccccc5)C4)n3)cc12 (centres unmarked) [Compound 63],100 to 1000,–,–
"Cc1n[nH]c2ccc(-c3nnc(Cl)c(N4CCN5CCCC5C4)n3)cc12 (centres unmarked) [Compound 31, 6-chloro-5-(1,4-diazabicyclo[4.3.0]non-1-yl)-3-(3-methylindazol-5-yl)-[1,2,4]triazine]",> 1000,–,–
"Cc1n[nH]c2ccc(-c3nnc(NCc4ccccc4)c(N4CCN[C@@H](C)C4)n3)cc12 [Compound 15, 6-benzylamino-3-(3-methylindazol-5-yl)-5-[(S)-3-methylpiperazin-1-yl]-[1,2,4]triazine]",100 to 1000,–,–
"Cc1n[nH]c2ccc(-c3nnc(CCc4ccccc4)c(N4CCNCC4)n3)cc12 [Compound 92, 3-(3-methylindazol-5-yl)-6-phenethyl-5-(piperazin-1-yl)-[1,2,4]triazine]",< 100,–,–
"Cc1n[nH]c2ccc(-c3nncc(N4CCN[C@@H](COCc5ccccc5)C4)n3)cc12 [Compound 26, 5-[(R)-3-(benzyloxymethyl)piperazin-1-yl]-3-(3-methylindazol-5-yl)-[1,2,4]triazine]",> 1000,–,–
"Cc1n[nH]c2ccc(-c3nnc(Cl)c(N4CCN[C@H](c5ccccc5)C4)n3)cc12 [Compound 43, 6-chloro-3-(3-methylindazol-5-yl)-5-[(R)-3-phenylpiperazin-1-yl]-[1,2,4]triazine]",100 to 1000,–,–
"Cc1n[nH]c2ccc(-c3nnc(N)c(N4CCN[C@@H](Cc5ccccc5)C4)n3)cc12 [Compound 5, 6-amino-5-[(S)-3-benzylpiperazin-1-yl]-3-(3-methylindazol-5-yl)-[1,2,4]triazine]",< 100,–,> 90
"Cc1n[nH]c2ccc(-c3nncc(N4CCN(C)[C@@H](Cc5ccccc5)C4)n3)cc12 [Compound 28, 5-[(S)-3-benzyl-4-methyl-piperazin-1-yl]-3-(3-methylindazol-5-yl)-[1,2,4]triazine]",< 100,–,–

SMILES,IC50 [1] [nM],IC50 [2] [nM],inhibition at 1.1 µg/mL [%]
Cc1n[nH]c2ccc(-c3nncc(N4CCCC(Cc5ccccc5)(C(=O)O)C4)n3)cc12 (centres unmarked) [Compound 65],> 1000,–,–
"CC(C)C[C@H]1CN(c2cnnc(-c3ccc4[nH]ncc4c3)n2)CCN1 [Compound 61, 3-indazol-5-yl-5-[(S)-3-isobutylpiperazin-1-yl]-[1,2,4]triazine]",< 100,–,–
"Cc1n[nH]c2ccc(-c3nnc(NCc4ccccc4)c(N4CCN[C@@H](CC(C)C)C4)n3)cc12 [Compound 17, 6-benzylamino-5-[(S)-3-isobutylpiperazin-1-yl]-3-(3-methylindazol-5-yl)-[1,2,4]triazine]",> 1000,–,–
"Cc1n[nH]c2ccc(-c3nncc(N4CCCC(CN)C4)n3)cc12 (centres unmarked) [Compound 35, 5-(3-aminmethylopiperidin-1-yl)-3-(3-methylindazol-5-yl)-[1,2,4]triazine]",> 1000,–,–
"Cc1n[nH]c2ccc(-c3nnc(N)c(N4CCN[C@@H](CC(C)C)C4)n3)cc12 [Compound 8, 6-amino-5-[(S)-3-isobutylpiperazin-1-yl]-3-(3-methylindazol-5-yl)-[1,2,4]triazine]",< 100,–,> 90
"Cc1n[nH]c2ccc(-c3nncc(N4CCN[C@@H](Cc5c[nH]c6ccccc56)C4)n3)cc12 [Compound 21, 5-[(S)-3-(3-indolylmethyl)piperazin-1-yl]-3-(3-methylindazol-5-yl)-[1,2,4]triazine]",100 to 1000,–,–
"CC(C)C[C@H]1CN(c2cnnc(-c3ccc4[nH]nc(Cl)c4c3)n2)CCN1 [Compound 64, 3-(3-chloroindazol-5-yl)-5-[(S)-3-isobutylpiperazin-1-yl]-[1,2,4]triazine]",< 100,6.1,–
"CCOC(=O)C1(Cc2ccccc2)CCCN(c2cnnc(-c3ccc4[nH]nc(C)c4c3)n2)C1 (centres unmarked) [Compound 62, 5-(3-benzyl-3-ethoxycarbonylpiperidin-1-yl)-3-(3-methylindazol-5-yl)-[1,2,4]triazine]",100 to 1000,–,–
"Cc1n[nH]c2ccc(-c3nnc(Cl)c(N4CCN[C@@H](Cc5c[nH]c6ccccc56)C4)n3)cc12 [Compound 22, 6-chloro-5-[(S)-3-(3-indolylmethyl)piperazin-1-yl]-3-(3-methylindazol-5-yl)-[1,2,4]triazine]",> 1000,–,–
"Cc1n[nH]c2ccc(-c3nncc(N4CCNC5(CCCCC5)C4)n3)cc12 [Compound 44, 5-(1,4-diaza-spiro[5.5]undec-4-yl)-3-(3-methylindazol-5-yl)-[1,2,4]triazine]",< 100,–,–
"Clc1n[nH]c2ccc(-c3nncc(N4CCN[C@@H](Cc5ccccc5)C4)n3)cc12 [Compound 56, 5-[(S)-3-benzylpiperazin-1-yl]-3-(3-chloroindazol-5-yl)-[1,2,4]triazine]",< 100,5.7,–
"Cc1n[nH]c2ccc(-c3nncc(N4CCNC(Cc5ccccn5)C4)n3)cc12 (centres unmarked) [Compound 58, 3-(3-methylindazol-5-yl)-5-[3-(pyridin-2-ylmethyl)piperazin-1-yl]-[1,2,4]triazine]",> 1000,–,–
"Cc1n[nH]c2ccc(-c3nncc(N4CCNCC4)n3)cc12 [Compound 46, 3-(3-methylindazol-5-yl)-5-(piperazin-1-yl)-[1,2,4]triazine]",100 to 1000,–,–
"Cc1n[nH]c2ccc(-c3nncc(N4CCNC5(CCCC5)C4)n3)cc12 [Compound 41, 5-(6,9-diaza-spiro[4.5]dec-9-yl)-3-(3-methylindazol-5-yl)-[1,2,4]triazine]",100 to 1000,–,–
"Cc1n[nH]c2ccc(-c3nncc(N4CCNC(Cc5cccnc5)C4)n3)cc12 (centres unmarked) [Compound 57, 3-(3-Methylindazol-5-yl)-5-[3-(pyridin-3-ylmethyl)piperazin-1-yl]-[1,2,4]triazine]",100 to 1000,–,–
